Columns and labels:
[1] = system: patient-derived liver cancer cell line LIXC012; experiment: Antiproliferative activity, ATPlite Luminescence Assay; type: cell-based; conditions: FGF19-overexpressing LIXC012 cells, about 72 hours, 5% FBS; read-out: LIXC012 IC50 (cellular antiproliferative)
Experimental: The antiproliferative activity of compounds are assessed in the patient-derived liver cancer cell line LIXC012 (Shanghai ChemPartner Co., LTD) by PerkinElmer ATPlite™ Luminescence Assay System. LIXC012 cell line has a FGFR-4 aberrant signaling pathway (FGF19-overexpressing). Briefly, the various test cancer cell lines are plated at a density of about 1×10^4 cells per well in Costar 96-well plates, and are incubated with different concentrations of compounds for about 72 hours in medium supplemented with 5% FBS. One lyophilized substrate solution vial is then reconstituted by adding 5 mL of substrate buffer solution, and is agitated gently until the solution is homogeneous. About 50 μL of mammalian cell lysis solution is added to 100 μL of cell suspension per well of a microplate, and the plate is shaken for about five minutes in an orbital shaker at ˜700 rpm. This procedure is used to lyse the cells and to stabilize the ATP. Next, 50 μL substrate solution is added to the wells and microplate is shaken for five minutes in an orbital shaker at ˜700 rpm. Finally, the luminescence is measured by a PerkinElmer TopCount® Microplate Scintillation Counter. Such assays, carried out with a range of doses of test compounds, allow the determination of the cellular anti-antiproliferative IC50 of the compounds of the present invention. The following table lists the IC50 values of certain compounds of the invention in the FGF19-overexpressing Patient-Derived liver cancer cell line LIXC012.

wild type FGFR-4 = target: T1, wild type FGFR-4 (Homo sapiens, UniProt P22455); experiment: FGFR-4 wild type assay at Km (Caliper mobility shift); type: biochemical; conditions: wild type FGFR-4, 400 uM ATP, 25 C, 90 minutes
T1 construct: purchased Carna Biosciences, Inc
T1 sequence (P22455 22-802): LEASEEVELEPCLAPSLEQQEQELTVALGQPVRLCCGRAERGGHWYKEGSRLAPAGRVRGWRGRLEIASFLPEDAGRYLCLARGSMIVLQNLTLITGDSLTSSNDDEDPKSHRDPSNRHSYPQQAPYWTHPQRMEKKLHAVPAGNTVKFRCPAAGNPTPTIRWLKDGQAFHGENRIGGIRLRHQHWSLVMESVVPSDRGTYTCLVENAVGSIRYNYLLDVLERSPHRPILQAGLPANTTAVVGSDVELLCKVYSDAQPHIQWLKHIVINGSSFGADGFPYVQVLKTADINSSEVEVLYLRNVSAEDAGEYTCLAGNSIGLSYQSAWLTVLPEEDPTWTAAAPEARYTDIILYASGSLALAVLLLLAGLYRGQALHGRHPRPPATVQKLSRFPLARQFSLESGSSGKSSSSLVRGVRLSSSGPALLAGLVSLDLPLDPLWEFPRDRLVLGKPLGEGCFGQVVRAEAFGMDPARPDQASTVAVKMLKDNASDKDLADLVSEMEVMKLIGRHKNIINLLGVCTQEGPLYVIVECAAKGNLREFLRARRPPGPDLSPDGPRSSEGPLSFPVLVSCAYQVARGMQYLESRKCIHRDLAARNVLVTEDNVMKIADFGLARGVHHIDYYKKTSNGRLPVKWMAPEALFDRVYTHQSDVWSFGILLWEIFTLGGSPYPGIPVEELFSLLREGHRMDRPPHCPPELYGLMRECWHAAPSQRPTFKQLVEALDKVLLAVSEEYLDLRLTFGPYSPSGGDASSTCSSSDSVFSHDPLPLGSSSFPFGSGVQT
Experimental: (§1) In order to assess the activity of chemical compounds against the relevant kinase of interest, the Caliper LifeSciences electrophoretic mobility shift technology platform is utilized. Fluorescently labeled substrate peptide is incubated in the presence dosed levels of compounds, a set concentration of kinase and of ATP, so that a reflective proportion of the peptide is phosphorylated. At the end of the reaction, the mix of phosphorylated (product) and non-phosphorylated (substrate) peptides are passed through the microfluidic system of the Caliper LabChip® EZ Reader II, under an applied potential difference. The presence of the phosphate group on the product peptide provides a difference in mass and charge between the product peptide and the substrate peptide, resulting in a separation of the substrate and product pools in the sample. As the pools pass the LEDS within the instrument, these pools are detected and resolved as separate peaks. The ratio between these peaks therefore reflects the activity of the chemical matter at that concentration in that well, under those conditions.
FGFR-4 wild type assay at Km: In each well of a 384-well plate, 0.5 ng/ul of wild type FGFR-4 (Carna Biosciences, Inc.) was incubated in a total of 12.5 ul of buffer (100 mM HEPES pH 7.5, 0.015% Brij 35, 10 mM MgCl2, ImM DTT) with 1 uM CSKtide (5-FAM-KKKKEEIYFFFG-NH2) and 400 uM ATP at 25 C for 90 minutes in the presence or absence of a dosed concentration series of compound (1% DMSO final concentration). The reaction was stopped by the addition of 70 ul of Stop buffer (100 mM HEPES pH 7.5, 0.015% Brij 35, 35 mM EDTA and 0.2% of Coating Reagent 3 (Caliper Lifesciences)). The plate was then read on a Caliper LabChip® EZ Reader II (protocol settings: −1.9 psi, upstream voltage −700, downstream voltage −3000, post sample sip 35 s).
Such assays, carried out with a range of doses of test compounds, allow the determination of an approximate IC50 value. […] The following table lists the IC50 values of certain compounds of the invention.

wild type FGFR-1 = target: T2, wild type FGFR-1 (Homo sapiens, UniProt P11362); experiment: FGFR-1 wild type assay at Km (Caliper mobility shift); type: biochemical; conditions: wild type FGFR-1, 400 uM ATP, 25 C, 90 minutes
T2 construct: purchased Carna Biosciences, Inc
T2 sequence (P11362 22-822): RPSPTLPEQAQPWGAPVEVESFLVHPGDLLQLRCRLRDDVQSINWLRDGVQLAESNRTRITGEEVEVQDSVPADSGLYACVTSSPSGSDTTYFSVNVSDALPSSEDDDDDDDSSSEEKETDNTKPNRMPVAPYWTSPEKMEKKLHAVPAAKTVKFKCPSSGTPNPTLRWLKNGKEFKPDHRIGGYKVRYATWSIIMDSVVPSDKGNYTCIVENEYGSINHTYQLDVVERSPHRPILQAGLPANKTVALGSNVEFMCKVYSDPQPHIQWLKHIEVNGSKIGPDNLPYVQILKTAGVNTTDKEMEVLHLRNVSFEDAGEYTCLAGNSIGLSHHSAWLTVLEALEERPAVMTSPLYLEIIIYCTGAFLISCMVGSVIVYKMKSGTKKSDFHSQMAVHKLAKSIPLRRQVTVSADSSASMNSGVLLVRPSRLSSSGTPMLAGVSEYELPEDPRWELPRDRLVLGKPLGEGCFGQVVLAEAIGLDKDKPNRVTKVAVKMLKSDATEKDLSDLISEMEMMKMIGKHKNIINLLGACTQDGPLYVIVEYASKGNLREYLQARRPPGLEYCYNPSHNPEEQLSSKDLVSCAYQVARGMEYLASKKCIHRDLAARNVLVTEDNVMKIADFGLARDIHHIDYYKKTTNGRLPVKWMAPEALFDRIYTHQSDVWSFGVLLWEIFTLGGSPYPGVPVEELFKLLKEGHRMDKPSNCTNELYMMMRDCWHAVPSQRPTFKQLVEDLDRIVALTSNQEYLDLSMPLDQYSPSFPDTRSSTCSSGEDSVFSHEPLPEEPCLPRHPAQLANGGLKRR
Experimental: as §1, with “conditions. […]” for “conditions.”

wild type FGFR-3 = target: T3, wild type FGFR-3 (Homo sapiens, UniProt P22607); experiment: FGFR-3 wild type assay at Km (Caliper mobility shift); type: biochemical; conditions: wild type FGFR-3, 400 uM ATP, 25 C, 90 minutes
T3 construct: purchased Carna Biosciences, Inc
T3 sequence (P22607 23-806): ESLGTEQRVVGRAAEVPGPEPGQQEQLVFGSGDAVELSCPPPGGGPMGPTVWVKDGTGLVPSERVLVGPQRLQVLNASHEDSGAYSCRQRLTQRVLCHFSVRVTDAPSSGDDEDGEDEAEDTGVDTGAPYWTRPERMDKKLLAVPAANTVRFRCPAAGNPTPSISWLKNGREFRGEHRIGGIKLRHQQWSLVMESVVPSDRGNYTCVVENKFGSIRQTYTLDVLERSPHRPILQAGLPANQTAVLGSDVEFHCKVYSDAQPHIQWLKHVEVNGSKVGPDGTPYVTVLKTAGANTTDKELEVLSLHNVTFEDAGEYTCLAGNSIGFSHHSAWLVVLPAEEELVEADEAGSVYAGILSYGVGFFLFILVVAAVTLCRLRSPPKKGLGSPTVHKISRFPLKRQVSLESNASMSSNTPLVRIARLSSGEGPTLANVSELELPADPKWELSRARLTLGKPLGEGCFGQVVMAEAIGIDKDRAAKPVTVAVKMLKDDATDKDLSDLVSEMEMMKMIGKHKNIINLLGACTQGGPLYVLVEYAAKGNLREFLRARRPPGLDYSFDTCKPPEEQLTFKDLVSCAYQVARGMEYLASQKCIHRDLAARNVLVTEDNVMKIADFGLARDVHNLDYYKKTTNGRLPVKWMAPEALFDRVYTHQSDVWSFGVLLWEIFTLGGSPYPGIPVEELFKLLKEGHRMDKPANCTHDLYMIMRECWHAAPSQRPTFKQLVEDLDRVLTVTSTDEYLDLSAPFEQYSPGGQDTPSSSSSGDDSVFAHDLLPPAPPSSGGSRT
Experimental: as §1, with “conditions. […]” for “conditions.”

wild type FGFR-2 = target: T4, wild type FGFR-2 (Homo sapiens, UniProt P21802); experiment: FGFR-2 wild type assay at Km (Caliper mobility shift); type: biochemical; conditions: wild type FGFR-2, 400 uM ATP, 25 C, 90 minutes
T4 construct: purchased Carna Biosciences, Inc
T4 sequence (P21802 22-821): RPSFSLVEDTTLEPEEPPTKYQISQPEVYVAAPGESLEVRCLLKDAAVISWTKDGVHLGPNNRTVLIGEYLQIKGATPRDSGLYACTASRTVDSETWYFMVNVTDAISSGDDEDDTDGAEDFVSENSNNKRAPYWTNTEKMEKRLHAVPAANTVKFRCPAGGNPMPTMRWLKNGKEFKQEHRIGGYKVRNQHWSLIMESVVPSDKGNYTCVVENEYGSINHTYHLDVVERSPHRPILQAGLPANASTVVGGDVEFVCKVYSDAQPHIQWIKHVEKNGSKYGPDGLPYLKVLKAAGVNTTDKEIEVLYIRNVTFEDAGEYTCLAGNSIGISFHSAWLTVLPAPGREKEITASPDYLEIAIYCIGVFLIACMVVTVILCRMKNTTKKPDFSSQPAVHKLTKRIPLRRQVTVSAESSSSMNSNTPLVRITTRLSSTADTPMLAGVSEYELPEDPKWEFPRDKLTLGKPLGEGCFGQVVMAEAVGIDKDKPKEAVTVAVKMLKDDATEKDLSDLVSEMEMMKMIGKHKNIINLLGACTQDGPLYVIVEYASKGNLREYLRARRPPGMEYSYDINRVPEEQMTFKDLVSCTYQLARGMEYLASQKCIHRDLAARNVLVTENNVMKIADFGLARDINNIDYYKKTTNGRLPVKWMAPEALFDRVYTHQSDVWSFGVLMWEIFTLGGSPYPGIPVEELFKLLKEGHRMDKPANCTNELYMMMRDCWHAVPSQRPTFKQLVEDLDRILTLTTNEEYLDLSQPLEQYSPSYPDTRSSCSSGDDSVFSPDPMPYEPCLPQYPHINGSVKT
Experimental: as §1, with “conditions. […]” for “conditions.”

| SMILES | IC50 [1] [nM] | IC50 (wild type FGFR-4) [nM] | IC50 (wild type FGFR-1) [nM] | IC50 (wild type FGFR-3) [nM] | IC50 (wild type FGFR-2) [nM] |
| --- | --- | --- | --- | --- | --- |
| C=CC(=O)Nc1cccc(C)c1Nc1ncc2cc(-c3c(Cl)c(OC)cc(OC)c3Cl)ccc2n1 [BLU9931, reference compound] | 280 | – | – | – | – |
| C=CC(=O)Nc1cccc(C)c1Nc1ncc2cc(-c3c(Cl)c(OC)cc(OC)c3Cl)c(=O)n(CC3CCN(C(=O)/C=C/CN(C)C)C3)c2n1 (stereo not shown) [CY-15-5] | – | < 50 | – | – | – |
| C=CC(=O)Nc1ccc(Cn2c(=O)c(-c3c(Cl)c(OC)cc(OC)c3Cl)cc3cnc(Nc4c(C)cccc4NC(=O)C=C)nc32)cc1 [CY-15-2, N-(4-((2-((2-acrylamido-6-methylphenyl)amino)-6-(2,6-dichloro-3,5-dimethoxyphenyl)-7-oxopyrido[2,3-d]pyrimidin-8(7H)-yl)methyl)phenyl)acrylamide] | 490 | < 50 | > 1000 | > 1000 | > 1000 |
| C=CC(=O)Nc1cccc(C)c1Nc1ncc2cc(-c3c(Cl)c(OC)cc(OC)c3Cl)c(=O)n(CC3CN(C(=O)/C=C/CN(C)C)C3)c2n1 [CY-15-4] | – | < 50 | – | – | – |
| C=CC(=O)Nc1ccc(CCn2c(=O)c(-c3c(Cl)c(OC)cc(OC)c3Cl)cc3cnc(Nc4c(C)cccc4NC(=O)C=C)nc32)cc1 [CY-15-3, N-(4-(2-(2-(2-acrylamido-6-methylphenylamino)-6-(2,6-dichloro-3,5-dimethoxyphenyl)-7-oxopyrido[2,3-d]pyrimidin-8(7H)-yl)ethyl)phenyl)acrylamide] | 660 | < 50 | > 1000 | > 1000 | > 1000 |

The remaining lines, values ahead:

| IC50 [1] [nM] | IC50 (wild type FGFR-4) [nM] | IC50 (wild type FGFR-1) [nM] | IC50 (wild type FGFR-3) [nM] | IC50 (wild type FGFR-2) [nM] | SMILES |
| --- | --- | --- | --- | --- | --- |
| – | < 50 | – | – | – | C=CC(=O)Nc1cccc(C)c1Nc1ncc2cc(-c3c(Cl)c(OC)cc(OC)c3Cl)c(=O)n(CCN3CCN(C(=O)C=C)CC3)c2n1 [CY-15-7] |
| – | < 50 | – | – | – | C=CC(=O)Nc1cccc(C)c1Nc1ncc2cc(-c3c(Cl)c(OC)cc(OC)c3Cl)c(=O)n(CC3CCN(C(=O)/C=C/CN(C)C)CC3)c2n1 [CY-15-6] |
| – | < 50 | – | – | – | C=CC(=O)Nc1cccc(C)c1Nc1ncc2cc(-c3c(Cl)c(OC)cc(OC)c3Cl)c(=O)n(CCCN3CCN(C(=O)C=C)CC3)c2n1 [CY-15-8] |

— patent publication US10253029B2, “Dual-warhead covalent inhibitors of FGFR-4” (Newave Pharmaceutical Inc., priority 2015, dated 2019)
